Patent US20250270209A1 (INTERLINE THERAPEUTICS, INC., priority 2022, published 2025)

Assays:
[1] = biological target: LRRK2 wild type enzyme (Homo sapiens, UniProt Q5S007); experiment: Biochemical Assay: LRRK2 TR-FRET (LanthaScreen) kinase assay with LRRKtide substrate; conditions: LRRK2 Inhibition, Table 8
Method in brief: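 TR-FRET detection (Tb-labelled phospho-LRRKtide antibody, EDTA stop, 30 min) followed a 120 min, 23 °C reaction of 3 nM wild-type human LRRK2 with LRRKtide (400 nM) and ATP (25 μM) in Tris pH 8.0. Compounds: 11-point 3-fold series from 10 μM, 15 min enzyme preincubation.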

[2] = biological target: T1, wild type LRRK2 overexpressed in recombinant HEK-293T cells (Homo sapiens, UniProt Q5S007); experiment: pS935 LRRK2 Cell Assay (HTRF, phospho-LRRK2 Ser935); type: cell-based; conditions: LRRK2 Inhibition, Table 8, 2 hours compound incubation
T1 construct: host or cells: HEK293T (transient transfection with pCMV-LRRK2 WT plasmid)
T1 sequence (Q5S007 whole entry): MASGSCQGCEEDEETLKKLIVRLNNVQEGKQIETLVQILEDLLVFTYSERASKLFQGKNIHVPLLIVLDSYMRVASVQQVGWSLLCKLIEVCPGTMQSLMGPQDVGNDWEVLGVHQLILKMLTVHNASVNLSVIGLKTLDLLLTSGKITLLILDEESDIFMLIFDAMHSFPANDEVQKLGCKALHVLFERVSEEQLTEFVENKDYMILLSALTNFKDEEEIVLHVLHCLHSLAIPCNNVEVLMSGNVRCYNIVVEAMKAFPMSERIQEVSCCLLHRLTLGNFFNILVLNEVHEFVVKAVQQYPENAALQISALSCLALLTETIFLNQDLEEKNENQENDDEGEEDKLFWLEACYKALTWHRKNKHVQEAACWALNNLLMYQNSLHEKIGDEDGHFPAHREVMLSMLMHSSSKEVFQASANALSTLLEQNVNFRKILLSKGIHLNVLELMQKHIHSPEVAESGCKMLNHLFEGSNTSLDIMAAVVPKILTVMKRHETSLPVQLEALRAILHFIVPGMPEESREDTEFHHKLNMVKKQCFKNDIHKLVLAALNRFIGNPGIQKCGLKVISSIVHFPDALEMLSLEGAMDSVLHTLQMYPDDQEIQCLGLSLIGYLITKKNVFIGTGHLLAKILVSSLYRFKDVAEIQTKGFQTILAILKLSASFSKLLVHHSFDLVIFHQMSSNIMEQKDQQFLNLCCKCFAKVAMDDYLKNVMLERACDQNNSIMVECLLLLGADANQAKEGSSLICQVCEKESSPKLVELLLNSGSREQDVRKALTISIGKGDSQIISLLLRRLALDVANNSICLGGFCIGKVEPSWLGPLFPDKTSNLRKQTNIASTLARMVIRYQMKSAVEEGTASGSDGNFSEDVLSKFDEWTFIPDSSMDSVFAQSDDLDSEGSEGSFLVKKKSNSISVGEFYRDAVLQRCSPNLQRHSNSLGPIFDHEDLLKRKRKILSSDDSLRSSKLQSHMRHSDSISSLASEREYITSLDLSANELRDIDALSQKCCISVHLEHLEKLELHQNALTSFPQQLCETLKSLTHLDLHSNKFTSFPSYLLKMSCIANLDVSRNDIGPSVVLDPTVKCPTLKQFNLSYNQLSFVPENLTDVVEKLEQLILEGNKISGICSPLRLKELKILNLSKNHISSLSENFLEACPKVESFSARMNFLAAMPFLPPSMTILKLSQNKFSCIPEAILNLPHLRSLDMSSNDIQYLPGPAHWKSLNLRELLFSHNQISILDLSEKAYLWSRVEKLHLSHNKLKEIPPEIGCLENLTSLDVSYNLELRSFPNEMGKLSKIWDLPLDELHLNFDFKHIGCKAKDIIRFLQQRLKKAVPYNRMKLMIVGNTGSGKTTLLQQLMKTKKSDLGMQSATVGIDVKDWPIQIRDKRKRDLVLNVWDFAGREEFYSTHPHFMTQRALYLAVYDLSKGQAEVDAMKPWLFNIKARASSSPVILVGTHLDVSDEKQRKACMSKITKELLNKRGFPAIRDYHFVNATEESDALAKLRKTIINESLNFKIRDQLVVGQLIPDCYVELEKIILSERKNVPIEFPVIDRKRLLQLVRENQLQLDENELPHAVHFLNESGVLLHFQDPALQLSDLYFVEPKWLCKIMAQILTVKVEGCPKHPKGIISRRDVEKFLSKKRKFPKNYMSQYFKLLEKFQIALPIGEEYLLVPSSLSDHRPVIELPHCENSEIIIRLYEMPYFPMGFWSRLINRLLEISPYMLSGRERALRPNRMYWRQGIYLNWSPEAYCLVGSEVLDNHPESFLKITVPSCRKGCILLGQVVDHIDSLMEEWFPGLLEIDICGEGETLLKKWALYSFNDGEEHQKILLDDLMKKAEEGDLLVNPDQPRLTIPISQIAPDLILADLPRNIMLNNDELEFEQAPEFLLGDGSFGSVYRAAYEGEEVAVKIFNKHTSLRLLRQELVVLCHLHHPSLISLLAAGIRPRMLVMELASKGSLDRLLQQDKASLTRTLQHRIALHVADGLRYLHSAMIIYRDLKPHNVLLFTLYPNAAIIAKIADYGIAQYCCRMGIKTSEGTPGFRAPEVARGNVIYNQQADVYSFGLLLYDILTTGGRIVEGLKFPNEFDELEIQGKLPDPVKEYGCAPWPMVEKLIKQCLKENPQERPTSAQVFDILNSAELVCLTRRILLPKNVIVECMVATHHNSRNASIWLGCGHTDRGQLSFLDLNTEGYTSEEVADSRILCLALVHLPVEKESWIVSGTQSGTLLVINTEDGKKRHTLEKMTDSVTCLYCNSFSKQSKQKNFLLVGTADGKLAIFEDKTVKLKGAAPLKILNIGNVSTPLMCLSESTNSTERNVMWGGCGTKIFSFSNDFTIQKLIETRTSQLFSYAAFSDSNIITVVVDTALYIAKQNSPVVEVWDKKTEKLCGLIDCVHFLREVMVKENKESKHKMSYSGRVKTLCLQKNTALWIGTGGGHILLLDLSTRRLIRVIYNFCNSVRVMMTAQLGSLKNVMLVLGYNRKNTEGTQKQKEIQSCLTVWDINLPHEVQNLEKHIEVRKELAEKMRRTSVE
Method in brief: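 Phospho-Ser935 LRRK2 measured by two-antibody HTRF (Eu-cryptate donor, d2 acceptor; 665/615 nm ratio) after overnight detection at 23° C. Before lysis, transiently LRRK2-transfected HEK-293T cells were exposed 2 h at 37° C to a 9-point, 3-fold series from 10 μM, with DMSO at 0.2%.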

Sequence of LRRK2 wild type enzyme (Q5S007 whole entry): as above

SMILES | IC50 [1] | IC50 [2]
C[C@@H]1C[C@H](n2c(CC(=O)NC3CC3F)nc3cnc4ccc(C#N)cc4c32)CCO1 (stereo in doubt) [Compound 245, N-[(1R,2R)-2-fluorocyclopropyl]{3-[(2R,4R)-2-methyltetrahydro-2H-pyran-4-yl]-12-cyano-3,5,8-triazatricyclo[7.4.0.0^2,6]trideca-1(13),2(6),4,7,9,11-hexaen-4-yl}acetamide] | 0.947 nM | 71 nM
C[C@@H]1C[C@H](n2c(CC(=O)NCC3COC3)nc3cnc4ccc(C#N)cc4c32)CCO1 [Compound 177, 2-{8-cyano-1-[(2R,4R)-2-methyloxan-4-yl]-1H-imidazo[4,5-c]quinolin-2-yl}-N-[(oxetan-3-yl)methyl]acetamide] | 0.524 nM | 124 nM
C[C@@H]1C[C@H](n2c(CC(=O)NC3COC3)nc3cnc4ccc(Cl)cc4c32)CCO1 [Compound 141, 2-{8-chloro-1-[(2R,4R)-2-methyloxan-4-yl]-1H-imidazo[4,5-c]quinolin-2-yl}-N-(oxetan-3-yl)acetamide] | 0.53 nM | 18.7 nM
C[C@@H]1C[C@H](n2c(CC(=O)N3CCCC3)nc3cnc4ccc(C#N)cc4c32)CCO1 [Compound 85, 1-[(2R,4R)-2-methyloxan-4-yl]-2-[2-oxo-2-(pyrrolidin-1-yl)ethyl]-1H-imidazo[4,5-c]quinoline-8-carbonitrile] | 5.11 nM | 416 nM
C[C@@H]1C[C@H](n2c(CC(=O)NCC3(C)CC3)nc3cnc4ccc(C#N)cc4c32)CCO1 [Compound 265, N-(1-methylcyclopropyl)methyl{3-[(2R,4R)-2-methyltetrahydro-2H-pyran-4-yl]-12-cyano-3,5,8-triazatricyclo[7.4.0.0^2,6]trideca-1,4,6,8,10,12-hexaen-4-yl}acetamide] | 0.548 nM | 22.4 nM
C[C@@H]1C[C@H](n2c(CC(=O)NC3CC3(C)C)nc3cnc4ccc(C#N)cc4c32)CCO1 (stereo partly drawn) [Compound 252, N-2,2-dimethylcyclopropyl{3-[(2R,4R)-2-methyltetrahydro-2H-pyran-4-yl]-12-cyano-3,5,8-triazatricyclo[7.4.0.0^2,6]trideca-1,4,6,8,10,12-hexaen-4-yl}acetamide] | 0.645 nM | 18.1 nM
C[C@@H]1C[C@H](n2c(C3CCN(C(=O)C4CC4)CC3)nc3cnc4ccc(C#N)cc4c32)CCO1 [Compound 27, 2-(1-cyclopropanecarbonylpiperidin-4-yl)-1-[(2R,4R)-2-methyloxan-4-yl]-1H-imidazo[4,5-c]quinoline-8-carbonitrile] | 1.49 nM | 115 nM
Cc1nc(C)c(NC(=O)Cc2nc3cnc4ccc(Cl)cc4c3n2[C@@H]2CCO[C@H](C)C2)c(C)n1 [Compound 217, N-(2,4,6-trimethyl-5-pyrimidinyl){3-[(2R,4R)-2-methyltetrahydro-2H-pyran-4-yl]-12-chloro-3,5,8-triazatricyclo[7.4.0.0^2,6]trideca-1,4,6,8,10,12-hexaen-4-yl}acetamide] | 0.294 nM | 5.53 nM
C[C@@H]1C[C@H](n2c(CC(=O)N[C@H]3C[C@H]3F)nc3cnc4ccc(C#N)cc4c32)CCO1 [Compound 289, N-[(1S,2R)-2-fluorocyclopropyl]{3-[(2R,4R)-2-methyltetrahydro-2H-pyran-4-yl]-12-cyano-3,5,8-triazatricyclo[7.4.0.0^2,6]trideca-1,4,6,8,10,12-hexaen-4-yl}acetamide] | 0.692 nM | 54.5 nM
C[C@@H]1C[C@H](n2c(CC(=O)Nc3cnc(C4CC4)nc3)nc3cnc4ccc(C#N)cc4c32)CCO1 [Compound 300, N-(2-cyclopropyl-5-pyrimidinyl){3-[(2R,4R)-2-methyltetrahydro-2H-pyran-4-yl]-12-cyano-3,5,8-triazatricyclo[7.4.0.0^2,6]trideca-1,4,6,8,10,12-hexaen-4-yl}acetamide] | 0.382 nM | 10.6 nM
Cc1cc(NC(=O)Cc2nc3cnc4ccc(C#N)cc4c3n2[C@@H]2CCO[C@H](C)C2)c(=O)n(C)n1 [Compound 214, N-(2-methyl-6-methyl-3-oxo-2,3-dihydro-4-pyridazinyl){3-[(2R,4R)-2-methyltetrahydro-2H-pyran-4-yl]-12-cyano-3,5,8-triazatricyclo[7.4.0.0^2,6]trideca-1,4,6,8,10,12-hexaen-4-yl}acetamide] | 0.294 nM | 10.3 nM
C[C@@H]1C[C@H](n2c(CC(=O)Nc3ccn(CCO)n3)nc3cnc4ccc(C#N)cc4c32)CCO1 [Compound 175, 2-{8-cyano-1-[(2R,4R)-2-methyloxan-4-yl]-1H-imidazo[4,5-c]quinolin-2-yl}-N-[1-(2-hydroxyethyl)-1H-pyrazol-3-yl]acetamide] | 0.32 nM | 132 nM
C[C@@H]1C[C@H](n2c(CC(=O)Nc3ccnn3C3COC3)nc3cnc4ccc(C#N)cc4c32)CCO1 [Compound 345, N-[1-(3-oxetanyl)-5-pyrazolyl]{3-[(2R,4R)-2-methyltetrahydro-2H-pyran-4-yl]-12-cyano-3,5,8-triazatricyclo[7.4.0.0^2,6]trideca-1(9),2(6),4,7,10,12-hexaen-4-yl}acetamide] | 0.573 nM | 52.6 nM
C[C@@H]1C[C@H](n2c(CC(=O)Nc3ccc(=O)n(C)c3)nc3cnc4ccc(C#N)cc4c32)CCO1 [Compound 281, N-(1-methyl-6-oxo-1,6-dihydro-3-pyridyl){3-[(2R,4R)-2-methyltetrahydro-2H-pyran-4-yl]-12-cyano-3,5,8-triazatricyclo[7.4.0.0^2,6]trideca-1,4,6,8,10,12-hexaen-4-yl}acetamide] | 0.394 nM | 336 nM
C[C@@H]1C[C@H](n2c(CC(=O)N[C@@H](C)c3ccccn3)nc3cnc4ccc(C#N)cc4c32)CCO1 [Compound 189, 2-{8-cyano-1-[(2R,4R)-2-methyloxan-4-yl]-1H-imidazo[4,5-c]quinolin-2-yl}-N-[(1S)-1-(pyridin-2-yl)ethyl]acetamide] | 0.332 nM | 1.64 nM
C[C@@H]1C[C@H](n2c(CC(=O)Nc3cnccn3)nc3cnc4ccc(C#N)cc4c32)CCO1 [Compound 337, N-2-pyrazinyl{3-[(2R,4R)-2-methyltetrahydro-2H-pyran-4-yl]-12-cyano-3,5,8-triazatricyclo[7.4.0.0^2,6]trideca-1,4,6,8,10,12-hexaen-4-yl}acetamide] | 0.337 nM | 1.61 nM
CC(C)NC(=O)Cc1nc2cnc3ccc(C#N)cc3c2n1[C@@H]1CCO[C@H](C)C1 [Compound 14, 2-{8-cyano-1-[(2R,4R)-2-methyloxan-4-yl]-1H-imidazo[4,5-c]quinolin-2-yl}-N-(propan-2-yl)acetamide] | 7.01 nM | 43.7 nM
C[C@@H]1C[C@H](n2c(CC(=O)Nc3cncc(C#N)c3)nc3cnc4ccc(C#N)cc4c32)CCO1 [Compound 284, N-(5-cyano-3-pyridyl){3-[(2R,4R)-2-methyltetrahydro-2H-pyran-4-yl]-12-cyano-3,5,8-triazatricyclo[7.4.0.0^2,6]trideca-1,4,6,8,10,12-hexaen-4-yl}acetamide] | 0.538 nM | 20 nM
Cc1cc(CNC(=O)Cc2nc3cnc4ccc(C#N)cc4c3n2[C@@H]2CCO[C@H](C)C2)no1 [Compound 176, 2-{8-cyano-1-[(2R,4R)-2-methyloxan-4-yl]-1H-imidazo[4,5-c]quinolin-2-yl}-N-[(5-methyl-1,2-oxazol-3-yl)methyl]acetamide] | 0.323 nM | 5.56 nM
C[C@@H]1C[C@H](n2c([C@H]3CCCN(C(=O)C4CC4)C3)nc3cnc4ccc(C#N)cc4c32)CCO1 [Compound 29, 2-[(3S)-1-cyclopropanecarbonylpiperidin-3-yl]-1-[(2R,4R)-2-methyloxan-4-yl]-1H-imidazo[4,5-c]quinoline-8-carbonitrile] | 135 nM | 4680 nM
C[C@@H]1C[C@H](n2c(C3CN(S(=O)(=O)C4CC4)C3)nc3cnc4ccc(C#N)cc4c32)CCO1 [Compound 66, 2-[1-(cyclopropanesulfonyl)azetidin-3-yl]-1-[(2R,4R)-2-methyloxan-4-yl]-1H-imidazo[4,5-c]quinoline-8-carbonitrile] | 3.35 nM | 525 nM
Cc1nn(C)c(Cl)c1NC(=O)Cc1nc2cnc3ccc(C#N)cc3c2n1[C@@H]1CCO[C@H](C)C1 [Compound 296, N-(5-chloro-1-methyl-3-methyl-4-pyrazolyl){3-[(2R,4R)-2-methyltetrahydro-2H-pyran-4-yl]-12-cyano-3,5,8-triazatricyclo[7.4.0.0^2,6]trideca-1,4,6,8,10,12-hexaen-4-yl}acetamide] | 0.462 nM | 7.61 nM
C[C@@H]1C[C@H](n2c(CC(=O)NCC(C)(C)C#N)nc3cnc4ccc(C#N)cc4c32)CCO1 [Compound 239, N-(2-cyano-2-methylpropyl){3-[(2R,4R)-2-methyltetrahydro-2H-pyran-4-yl]-12-cyano-3,5,8-triazatricyclo[7.4.0.0^2,6]trideca-1(9),2(6),4,7,10,12-hexaen-4-yl}acetamide] | 1.32 nM | 169 nM
COc1ncccc1NC(=O)Cc1nc2cnc3ccc(C#N)cc3c2n1[C@@H]1CCO[C@H](C)C1 [Compound 318, N-(2-methoxy-3-pyridyl){3-[(2R,4R)-2-methyltetrahydro-2H-pyran-4-yl]-12-cyano-3,5,8-triazatricyclo[7.4.0.0^2,6]trideca-1(9),2(6),4,7,10,12-hexaen-4-yl}acetamide] | 0.499 nM | 2.04 nM
C[C@@H]1C[C@H](n2c(CC(=O)NCCC(F)(F)F)nc3cnc4ccc(C#N)cc4c32)CCO1 [Compound 167, 2-{8-cyano-1-[(2R,4R)-2-methyloxan-4-yl]-1H-imidazo[4,5-c]quinolin-2-yl}-N-(3,3,3-trifluoropropyl)acetamide] | 0.638 nM | 46.2 nM
